Values quoted from earlier work as cited in patent publication US6503745B1, “Cyclopentane and cyclopentene compounds and use for detecting influenza virus” (priority 1998, dated 2003).
Where two headings read alike, the source gives them in different places.

How the values were obtained:
influenza [1] = settings: in animals
influenza [2] = settings: in human volunteers

| Structure (SMILES) | binder of influenza neuraminidase (influenza neuraminidase) | in vivo antiviral activity (influenza [1]) | in vivo antiviral activity (influenza [2]) |
| --- | --- | --- | --- |
| CCC(CC)O[C@@H]1C=C(C(=O)O)C[C@H](N)[C@H]1NC(C)=O [GS 4071, (3R,4R,5S)-4-acetamido-5-amino-3-(1-ethylpropoxy)-1-cyclohexene-1-carboxylic acid] | potent binders | – | – |
| CC(=O)NC1C(NC(=N)N)C=C(C(=O)O)OC1[C@H](O)[C@H](O)CO (stereo partly shown) [GG167, 2,3-didehydro-2,4-dideoxy-4-guanidinyl-N-acetylneuraminic acid] | potent binder | potent in vivo antiviral activity | potent in vivo antiviral activity |
